Data published in ChEMBL document CHEMBL1123354, “Antitumor agents. 78. Inhibition of human DNA topoisomerase II by podophyllotoxin and alpha-peltatin analogues” (J Med Chem, 1986).

What was measured:
[1] = target: T1, DNA topoisomerase II (Homo sapiens) (UniProt P11388+Q02880); experiment: (§1) Compound was tested for percentage inhibition against DNA topoisomerase II; assay type: protein assay; conditions: concentration not given here
[2] = target: T1, DNA topoisomerase II (Homo sapiens); experiment: as §1; assay type: protein assay; design: concentration or dose not given beside the values; conditions: concentration not given here

Row | Structure (SMILES) | inhibition [1] | inhibition [2]
1 | COc1cc([C@@H]2c3cc(OC(C)=O)c(OC(C)=O)c(OC(C)=O)c3CC3COC(=O)[C@@H]32)cc(OC)c1OC(C)=O (some centres undefined) | 25% | –
2 | COc1cc([C@@H]2c3cc4c(c(O)c3C[C@H]3COC(=O)[C@@H]32)OCO4)cc(OC)c1O | – | 20%
3 | COc1cc([C@@H]2c3cc4c(c(OC(C)=O)c3CC3COC(=O)[C@@H]32)OCO4)cc(OC)c1OC(C)=O (some centres undefined) | 10% | –
4 | CCO[C@@H]1c2cc3c(cc2[C@@H](c2cc(OC)c(O)c(OC)c2)[C@H]2C(=O)OCC12)OCO3 (some centres undefined) | – | 89%
5 | COc1cc([C@@H]2c3cc4c(cc3[C@H](O)[C@H]3COC(=O)[C@H]23)OCO4)cc(OC)c1OC | – | 30%
6 | COc1cc([C@@H]2c3cc4c(cc3[C@@H](O[C@@H]3O[C@@H]5CO[C@@H](C)O[C@H]5[C@H](O)[C@H]3O)[C@H]3COC(=O)[C@H]23)OCO4)cc(OC)c1O | – | 85%
7 | COc1cc([C@@H]2c3cc4c(cc3[C@@H](O)C3COC(=O)[C@@H]32)OCO4)cc(O)c1O (some centres undefined) | 75% | –
8 | COc1cc([C@@H]2c3cc4c(cc3[C@@H](O)[C@H]3COC(=O)[C@H]23)OCO4)cc(OC)c1O | – | 60%
9 | COc1cc([C@@H]2c3cc(O)c(O)c(O)c3CC3COC(=O)[C@@H]32)cc(OC)c1O (some centres undefined) | 45% | –
